We go through three compounds from PMC6828666, “Discovery of holoenzyme-disrupting chemicals as substrate-selective CK2 inhibitors” (Scientific Reports, 2019).

SMILES strings stand for the structures.

One assay deals with CK2α (Homo sapiens, UniProt P68400). The assay can be described thus: SPR binding studies on captured GST-CK2α. The settings on record: surface plasmon resonance. On the procedure: SPR competition studies (Fig. 2i) were performed using a BIAcore 3000 instrument (BIAcore AB) equipped with a CM5 sensor chip (BIAcore AB). After activation with a solution of N-hydroxysuccinimide and N-ethyl-N-(dimethylaminopropyl)carbodiimide hydrochloride (coupling solution BIAcore AB), the anti-GST antibody diluted at 30 μg/ml in 10 mM acetate buffer pH 5.0 was injected at a flow rate of 5 μL/min for 7 min. All the surfaces were blocked with a 3 min injection at 10 μL/min of 1 M ethanolamine, pH 8.0. GST-CK2α (50 μg/ml) was immobilized on the surface at a flow rate of 5 μL/min in HBS (10 mM Hepes pH 7.3, 0.15 M NaCl, 3 mM EDTA, 0.005% polysorbate 20). MBP-CK2β diluted at 50 μg/ml in HBS buffer was injected over the surface at a flow rate of 5 μL/min in presence of various compound 1 concentration. Regeneration of the surfaces was achieved by injection of 10 mM glycine-HCl pH 2.2. SPR binding studies (Supplementary Fig. S7) were performed using a Reichert SR7000DC instrument optical biosensor (Reichert Technologies) equipped with a CMD500m sensor chip obtained from XanTec Bioanalytics. CK2α was immobilized by a capturing approach using a monoclonal anti-GST antibody (27 kDa, Clone GST-R 6G9 produced in rat, SAB4200055 Sigma Aldrich). Prior to use, the anti-GST antibodies were purified twice by micro dialysis at 4 °C (Membrane: dialysis tubing benzoylated, 9 mm, D2272-5FT) in 10 mM sodium acetate, pH = 5. Anti-GST antibodies were immobilized using amine-coupling chemistry at 12 °C. The surfaces of all two flow cells were activated for 7 min with a 1:1 mixture of 0.1 M NHS (N-hydroxysuccinimide) and 0.1 M EDC (3-(N,N-dimethylamino) propyl-N-ethylcarbodiimide) at a flow rate of 10 μL/min. The antibody at a concentration of 30 μg/mL in 10 mM sodium acetate, pH 5.0, was immobilized at a density of 2000 RU on flow cell 2; flow cell 1 was left blank to serve as a reference surface. All the surfaces were blocked with a 3 min injection at 10 μL/min of 1 M ethanolamine, pH 8.0. GST tagged CK2α at a concentration of 50 μg/mL in 10 mM HEPES, 150 mM NaCl, 3 mM EDTA, 0.005% (v/v) polysorbate 20, pH = 7.4 was captured at a density of 900 RU on flow cell 2. In order to collect kinetic binding data, analytes in 10 mM HEPES, 150 mM NaCl, 3 mM EDTA, 0.005% (v/v) polysorbate 20, 1% DMSO (v/v), 100 μM ATP, pH = 7.4 were injected over the two flow cells at concentrations of 50, 25, 12.5, 6.25, 3.12, 1.56 μM at a flow rate of 25 μL/min and at a temperature of 25 °C. The complex was allowed to associate and dissociate for 120 s. Duplicate injections (in random order) of each sample and a buffer blank were flowed over the two surfaces. Affinities were obtained after treatments (DMSO calibration, blank and references subtractions) using the software Scrubber 2.0c.
Chain of CK2α (P68400 whole entry): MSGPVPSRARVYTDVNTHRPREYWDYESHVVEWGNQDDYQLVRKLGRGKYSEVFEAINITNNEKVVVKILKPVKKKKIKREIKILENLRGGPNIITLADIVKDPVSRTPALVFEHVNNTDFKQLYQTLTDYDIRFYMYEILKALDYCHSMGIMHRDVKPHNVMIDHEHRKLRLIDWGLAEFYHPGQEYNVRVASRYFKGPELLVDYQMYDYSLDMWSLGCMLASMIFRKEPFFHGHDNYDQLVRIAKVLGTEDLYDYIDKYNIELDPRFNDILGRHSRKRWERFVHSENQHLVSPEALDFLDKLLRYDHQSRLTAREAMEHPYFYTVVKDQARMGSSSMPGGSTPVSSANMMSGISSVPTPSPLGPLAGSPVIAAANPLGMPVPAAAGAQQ
Fig. S7. Binding kinetics of compounds 2-6 by surface plasmon resonance. For each compound, sensorgrams (black line) and global fits (orange line) are depicted with the corresponding chemical structure and the fitted kinetics parameters. Experiments show representative data of two identical repeats.
Background: SPR reads the build-up and loss of mass on a sensor chip optically.

In the next assay the test system is MCF10A cells. As to the kind of experiment: Scratch wound cell migration assay. It counts as cell-based, human. The conditions noted are these: 40 μM. On the procedure:
Cells seeded at equal density were allowed to grow to confluence overnight. The Essen Bioscience WoundMaker^TM, an accessory for the IncuCyte Zoom®, was utilized to create Scratch-wounds of a standardized width (~600 μm). Cells were treated with the indicated inhibitors and imaged every 15 min for 44 h and the percentage of wound confluence was analyzed.
Fig. S10. […] MCF10A cells (a) or MDA-MB231 cells (b) were allowed to grow to confluence overnight. Wounds of a standardized width were created using the Essen Bioscience WoundMakerTM. […] Wound closure was monitored using the Essen IncuCyte Zoom live-cell microscopy incubator. Images were captured every 2 h for the duration of the experiment. Error bars represent the SEM of two biological replicates derived from technical triplicates.

The test system of assay [1] is p21 phosphorylation at Thr145 in MCF10A cells. As to the kind of experiment: Western blot of p21 Thr145 phosphorylation. Type of assay: cell-based, human. The settings on record: 24 h. On the procedure:
Figure 5 Cellular effects of compounds 3, 4 and 6. MCF10A cells were incubated for 24 h with either DMSO or 30 μM TAT or 30 μM TAT-Pc or 25 μM 6 (a) or with increasing concentrations of 6 (b) or 3 (c). MCF10A cells were incubated for 48 h with either DMSO or with increasing concentrations of 3 or 6 (d). Cells were then lysed and analyzed by western blot with the indicated antibodies. Blot images are representative of at least three independent experiments. Uncropped blots are shown in Supplementary Fig. S16. (e) MDA-MB231 cells were treated with 40 μM 6 (⚬), 4 (▴) or 3 (X). (f) MDA-MB231 cells were treated for 30 h with increasing concentrations of 6 (⚬) or 4 (▴). Insert: cells were treated for 30 h with 80 μM 6 or 10 μM CX-4945. (g) Cells were incubated with 80 μM 6 or 4 in the absence or presence of 20 μM Z-VAD. […] (h) MDA-MB231 cells (⚬) or MCF10A cells (⦁) were incubated for 24 h with 80 μM 6. Cell death was automatically quantified from images captured every 3 h for the duration of the experiments using an Essen IncuCyte Zoom live-cell microscopy incubator. Error bars represent the SEM of two biological replicates derived from technical triplicates.
Cells were lysed in RIPA buffer (10 mM Tris-HCl pH 7.4, 150 mM NaCl, 1% Triton X-100, 0.1% SDS, 0.5% DOC and 1 mM EDTA) containing both protease- and phosphatase-inhibitor cocktails (Sigma-Aldrich; P8340, P2850, P5726). Cell homogenates were quantified using BCA protein Assay kit (Thermo Scientific). SDS-PAGE was performed using pre-cast 4–12% gradient gel (Bio-Rad) and submitted to electrophoresis in NuPAGE buffer (150 V for 75 min). Separated proteins at 20 μg/lane were transferred to PVDF membranes (100 V for 60 min). […] Luminata Forte Western HRP substrate (Millipore) was added and membranes were read with Fusion Fx7 (PerkinElmer). […] Images were analyzed and band intensities were quantified using ImageJ software. […]
On the technique in general: In western blotting, separated proteins are transferred to a membrane and probed.

By Kd is commonly meant the constant that tells how readily two partners part at equilibrium. A higher Kd goes with a looser complex. Consider `CS(=O)(=O)NCCN1CCC(COC(=O)c2c[nH]c3ccccc23)CC1` [Compound 3, (1-(2-(Methylsulfonamido)ethyl)piperidin-4-yl)methyl 1H-indole-3-carboxylate], for which the Kd at CK2α turned out to be 54 ± 5 µM. In addition, the “cell migration / wound closure” value with MCF10A cells was “not affected”. The p21 phosphorylation result in assay [1] (100 μM) is reported as “moderate increase”.
As for `O=C(OCC1CCN(CCNS(=O)(=O)c2ccccc2)CC1)c1c[nH]c2ccccc12` [Compound 4, (1-(2-(Phenylsulfonamido)ethyl)piperidin-4-yl)methyl 1H-indole-3-carboxylate], the Kd on CK2α stood at 41 ± 5 µM.
With `COc1[nH]c2ccc(F)cc2c1C(=O)OCC1CCN(CCNS(=O)(=O)c2ccccc2)CC1.Cl` [Compound 6], the “cell migration / wound closure” value with MCF10A cells is listed as “completely abrogated”. In addition, the “concentration at which p21 Thr145 phosphorylation reaches the maximum” value in assay [1] is 20 µM. In addition, the “p21 Thr145 phosphorylation” value in assay [1] (increasing concentrations) was “striking dose-dependent increase”.
